Laboratory results taken from paper doi:10.1101/2020.05.21.106633v1 (bioRxiv, 2020).
Non-standard residues stand in square brackets, D forms with d. Residues, ends and D or L forms follow the SMILES beside them. *: point of attachment. FITC = O=C1OC2(c3ccc(O)cc3Oc3cc(O)ccc32)c2ccc(NC(=S)*)cc21; Ahx = NCCCCCC(=O)O

Experiments:
[1] = molecular target: T1, recombinant dg-Bcan protein (deglycosylated recombinant human brevican) (Homo sapiens, UniProt Q96GW7); assay: Octet binding kinetic analysis; settings: for Rmax (maximal response in response unit): Octet steady state analysis, one site specific binding fit
T1 sequence (Q96GW7 23-911): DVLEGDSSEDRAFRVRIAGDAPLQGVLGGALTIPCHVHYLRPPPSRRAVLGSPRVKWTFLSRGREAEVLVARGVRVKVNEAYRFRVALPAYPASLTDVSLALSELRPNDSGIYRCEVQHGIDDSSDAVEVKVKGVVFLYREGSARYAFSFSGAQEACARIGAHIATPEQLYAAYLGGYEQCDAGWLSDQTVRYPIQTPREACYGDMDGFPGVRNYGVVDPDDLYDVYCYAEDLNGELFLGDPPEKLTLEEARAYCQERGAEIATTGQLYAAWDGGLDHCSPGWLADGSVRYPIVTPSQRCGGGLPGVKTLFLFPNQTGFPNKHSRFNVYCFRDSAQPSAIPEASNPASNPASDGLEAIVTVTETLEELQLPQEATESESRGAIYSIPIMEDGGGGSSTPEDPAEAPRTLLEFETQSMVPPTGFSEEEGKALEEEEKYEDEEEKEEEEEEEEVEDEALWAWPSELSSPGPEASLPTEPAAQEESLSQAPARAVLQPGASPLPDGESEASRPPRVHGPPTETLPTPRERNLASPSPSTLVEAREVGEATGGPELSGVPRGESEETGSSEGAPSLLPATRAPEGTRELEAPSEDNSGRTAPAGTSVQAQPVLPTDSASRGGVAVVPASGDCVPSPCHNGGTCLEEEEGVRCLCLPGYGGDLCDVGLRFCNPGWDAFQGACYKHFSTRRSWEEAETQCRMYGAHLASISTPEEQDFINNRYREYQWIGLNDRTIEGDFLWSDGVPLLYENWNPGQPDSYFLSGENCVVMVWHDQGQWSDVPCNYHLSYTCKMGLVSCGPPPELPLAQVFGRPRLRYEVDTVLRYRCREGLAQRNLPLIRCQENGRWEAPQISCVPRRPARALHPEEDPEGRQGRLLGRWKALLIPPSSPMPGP

GBM-6 cells = assay: CellTitre-Glo cell viability assay, GBM-6; assay type: cell-based, human; settings: BTP-7 50 µM, 48 hrs, nwell = 3
GBM-6 neurospheres = assay: Collagen cell invasion assay; assay type: cell-based, human; settings: BTP-7 50 µM, n = 3

SMILES	Rmax (maximal response in response unit) [1]	effect on GBM-6 proliferation (GBM-6 cells)	effect on GBM-6 invasion in collagen (GBM-6 neurospheres)	Kd [1]
CC(C)[C@@H](NC(=O)[C@@H](Cc1c[nH]cn1)NC(=O)CNC(=O)[C@@H](Cc1c[nH]c2ccccc12)NC(=O)[C@@H](CCCCN)NC(=O)[C@H](N)[C@H](C)O)C(=O)N[C@H](CC(N)=O)C(=O)N[C@H](CCCCN)C(N)=O [BTP-7]	0.307	not affected	not affected	–
CC[C@@H](C)[C@@H](NC(=O)[C@@H](C)NC(=O)[C@@H](CCCNC(=N)N)NC(=O)[C@@H](CCC(N)=O)NC(=O)[C@@H](CCCNC(=N)N)NC(=O)[C@@H](CCCNC(=N)N)NC(=O)[C@@H](CC(=O)O)NC(=O)[C@@H](C)N)C(N)=O [BTP-9] (H-[dA][dD][dR][dR][dQ][dR][dA][dI]-NH2; N-terminus and C-terminus assumed)	0.338	–	–	–
CC(C)[C@@H](NC(=O)[C@@H](Cc1c[nH]cn1)NC(=O)CNC(=O)[C@@H](Cc1c[nH]c2ccccc12)NC(=O)[C@@H](CCCCN)NC(=O)[C@H](N)[C@H](C)O)C(=O)N[C@H](CC(N)=O)C(=O)N[C@H](CCCCN)C(=O)NCCCCCC(=O)N[C@@H](CCCCNC(=S)Nc1ccc2c(c1)C(=O)OC21c2ccc(O)cc2Oc2cc(O)ccc21)C(N)=O [Fluorescein-conjugated BTP-7] (H-[dT][dK][dW]G[dH][dV][dN][dK][Ahx]K(FITC)-NH2)	–	–	–	3.8 µM
